{"source": "patent US9469616B2", "about": "“Cyclic compounds and methods of making and using the same” (Cellceutix Corporation, priority 2011, dated 2016)", "key": {"[1]": {"system": "E. coli (25922)", "assay": "MIC assay (Table 1)", "type": "cell-based", "conditions": "Escherichia coli, isolate 25922"}, "[2]": {"system": "S. aureus (27660)", "assay": "MIC assay (Table 1)", "type": "cell-based", "conditions": "Staphylococcus aureus, isolate 27660"}, "[3]": {"system": "E. faecalis (29212)", "assay": "MIC assay (Table 1)", "type": "cell-based", "conditions": "Enterococcus faecalis, isolate 29212", "procedure": "(§1) The compounds are screened for antimicrobial activity against a number of clinically relevant pathogens. Minimum Inhibitory Concentrations (MIC) of each of the compounds are determined using standard procedures for clinical ocular isolates of Ciprofloxacin Susceptible (CS) S. aureus (CSSA), Ciprofloxacin Resistant (CR) S. aureus (CRSA), CS S. epidermidis (CSSE), CR S. epidermidis (CRSE), St. pneumoniae (SP), St. viridans group (SV), Moraxella Species (MS) (including Moraxella catarrhalis), H. influenzae (HI), P. aeruginosa (PA), Serratia marcescens (SM), S. aureus fluoroquinolone-susceptible, S. aureus fluoroquinolone-resistant, S. epidermidis (Coagulase-negative Staphylococcus) fluoroquinolone-susceptible, S. epidermidis (Coagulase-negative Staphylococcus) fluoroquinolone-resistant, and Serratia marcescens.\n(§2) On the day of testing, a 640 μg/m (1280 μg/m for Serratia marcescens and Pseudomonas aeruginosa) concentration is prepared from a 1% stock solution in 0.01% acetic acid, 0.2% BSA in polypropylene tubes.\n(§3) Ten μl of diluted 10× test agents is added to each well of one row of the 96 well polypropylene plates from column 2 to column 12 (column 1 is a control for bacteria alone, with no peptide). […] The same peptide is in each of the 8 rows. One plate contains dilutions of one test agent and 8 bacterial isolates.\n(§4) Ninety μl of the bacterial suspensions is dispensed in each well from column 1 to column 12. Each bacterial isolate is placed in one row of a 96 well polypropylene plate containing the test agents. The plates are placed on shaker at 15 minutes at room temperature, and then incubated at 37° C. overnight. MICs are determined visually as the lowest concentration of drug that inhibits visible bacterial growth.\n(§5) Data is expressed as MIC50 in μg/ml. The bacterial isolates were as follows: E. coli (25922); S. aureus (27660); E. faecalis (29212); P. aeruginosa (10145); and K. pneumoniae (13883)."}, "[4]": {"system": "K. pneumoniae (13883)", "assay": "MIC assay (Table 1)", "type": "cell-based", "conditions": "Klebsiella pneumoniae, isolate 13883, read-out: MIC50 K. Pnuemnoiae", "procedure": "as §1, §2, §3, §4, §5"}, "[5]": {"system": "P. aeruginosa (10145)", "assay": "MIC assay (Table 1)", "type": "cell-based", "conditions": "Pseudomonas aeruginosa, isolate 10145"}, "[6]": {"system": "Escherichia coli", "assay": "Antimicrobial activity (MIC) of aryl compounds (Table 2)", "type": "cell-based", "conditions": "for MIC: Escherichia coli, Table 2", "from_the_text": "(§6) A new series of aryl compounds was designed to evaluate the effect of charge and aromatic group hydrophobicity on the biological activity while still maintaining an amphiphilic topology. Four and six cationic charges were investigated, and three different central rings were used to tune the overall hydrophobicity: benzene, naphthalene, and phenylbenzene. The hydrophobicities of the aryl compounds were quantified using reversed-phase HPLC retention times (Rt). The antimicrobial activities (expressed as minimum inhibitory concentration (MIC)) of these compounds were tested against four pathogens, including both Gram-negative and Gram-positive bacteria, and their hemolysis (evaluated in terms of HC50, the lowest concentration that causes 50% hemolysis of red blood cells (RBCs)) was tested against human RBCs."}, "[7]": {"system": "Staphylococcus aureus", "assay": "Antimicrobial activity (MIC) of aryl compounds (Table 2)", "type": "cell-based", "conditions": "for MIC: Staphylococcus aureus, Table 2, read-out: MIC S. aureus", "from_the_text": "as §6"}, "[8]": {"system": "human RBCs", "type": "cell-based", "conditions": "1 h, pH 7.4", "from_the_text": "as §6\nCytotoxicity of the compounds is also evaluated in a hemolysis assay using human erythrocytes. Pooled whole human blood is centrifuged to separate the red blood cells (RBC). The isolated RBCs are rinsed and diluted in Tris-buffered saline (TBS buffer, pH 7.4) to obtain a 0.22% RBC stock suspension. 5 μL of a Compound stock solution is added to 45 μL of RBC suspension and incubated with shaking for 1 hour at 37° C. At the conclusion of the incubation time, samples are centrifuged and 30 μL of the supernatant is added to 100 μL of water. OD414 measurements are read for hemoglobin concentration. The bee venom peptide melittin is used as a positive control. EC50 values are determined as described above.\nCytotoxicity is also evaluated in a hemolysis assay using isolated human erythrocytes. Pooled whole human blood is centrifuged to separate the red blood cells (RBC). The isolated RBCs are rinsed and diluted in Tris-buffered saline (TBS buffer, pH 7.4) to obtain a 0.22% RBC stock suspension. […] OD405 measurements are read for hemoglobin concentration. […] EC50 values are determined using a four parameter logistic equation: Y=Bottom+(Top−Bottom)/(1+10^((Log EC50−X)*HillSlope))."}, "[9]": {"system": "RAW 264.7 cells", "assay": "Cytokine production in RAW 264.7 cells (ELISA)", "type": "cell-based, murine", "conditions": "5.0 μg/mL preincubation 1 hour, LPS 100 ng/mL 18 hours; FIG. 1B"}, "[10]": {"system": "Staphylococcus aureus", "conditions": "Data from Thaker, et al., J. Med. Chem., 2011, 54, 2241; cited from earlier work"}, "[11]": {"system": "Escherichia coli", "conditions": "Data from Thaker, et al., J. Med. Chem., 2011, 54, 2241; cited from earlier work"}, "[12]": {"system": "NIH/3T3 cells", "assay": "Cytotoxicity colorimetric assay", "type": "cell-based", "conditions": "Mus musculus, NIH3T3, 1 h, one hour incubation in serum-free media", "procedure": "Cytotoxicity of the compounds are evaluated in a colorimetric assay using a transformed human liver cell line (HepG2, HB-8065) and an embryonic mouse cell line (NIH/3T3 cells, CRL-1658). This assay measures the bioreduction of a novel tetrazolium compound to a soluble formazan product by viable cells. HepG2 cells are seeded in 96 well plates at 2×10^4 cells/well in MEM medium with 10% fetal bovine serum (FBS) 24 hours prior to use. NIH/3T3 cells are seeded in 96 well plates at 2×10^4 cells/well in DMEM medium with 10% bovine calf serum (BCS) 24 hours prior to use. Cell monolayers are rinsed in serum-free media and incubated for one hour with a Compound in serum-free media. After incubation, the media is replaced with serum supplemented media and live cells are measured using the Cell Titer 96 Aqueous […] Assay kit (Promega, Madison, Wis.). EC50 values are determined using a four parameter logistic equation: Y=Bottom+(Top−Bottom)/(1+10^((Log EC50−X)*HillSlope)). […] Data is expressed as EC50 in μg/ml. Cytotoxicity is evaluated in a colorimetric assay using a transformed human liver cell line (HepG2, HB-8065) and an embryonic mouse cell line (NIH/3T3 cells, CRL-1658). This assay measures the bioreduction of a novel tetrazolium compound to a soluble formazan product by viable cells. HepG2 cells are seeded in 96 well plates at 3×10^4 cells/well in MEM medium with 10% fetal bovine serum (FBS) 24 hours prior to use. NIH/3T3 cells are seeded in 96 well plates at 2×10^4 cells/well in DMEM medium with 10% bovine calf serum (BCS) 24 hours prior to use. Cell monolayers are rinsed in serum-free media and incubated for one hour with test agent in serum-free media. After incubation, the media is replaced with serum supplemented media and live cells are measured using the Cell Titer 96 Aqueous […] Assay kit (Promega, Madison, Wis.). EC50 values are determined using a four parameter logistic equation: Y=Bottom+(Top−Bottom)/(1+10^((Log EC50−X)*HillSlope))."}}, "note": "Where “and” joins values, the source holds several entries; their conditions need not be identical. Equal entries are not always repeated.", "data": [{"compound": "NCCCOc1cc(OCCCN)cc(-c2ccc3ccc(-c4cc(OCCCN)cc(OCCCN)c4)cc3c2)c1", "note": "[Compound 119]", "values": [{"measurement": "MIC50", "setting": "[1]", "value": 25, "unit": "µg/mL"}, {"measurement": "MIC50", "setting": "[2]", "value": 12.5, "unit": "µg/mL"}, {"measurement": "MIC50", "setting": "[3]", "value": 6.25, "unit": "µg/mL"}, {"measurement": "MIC50", "setting": "[4]", "value": 50, "unit": "µg/mL"}, {"measurement": "MIC50", "setting": "[5]", "value": 25, "unit": "µg/mL"}, {"measurement": "MIC", "setting": "[6]", "value": 25, "unit": "µg/mL"}, {"measurement": "Selectivity (HC50/MIC) E. coli", "setting": "[6]", "value": 7.8}, {"measurement": "Selectivity (HC50/MIC) S. aureus", "setting": "[7]", "value": 15.6}, {"measurement": "MIC", "setting": "[7]", "value": 12.5, "unit": "µg/mL"}, {"measurement": "HC50", "setting": "[8]", "value": 195, "unit": "µg/mL"}, {"measurement": "LPS-induced TNF production", "setting": "[9]", "value": "did not cause any additional increase in TNF production"}]}, {"compound": "MSI-78", "values": [{"measurement": "MIC S. aureus", "setting": "[10]", "value": "16 µg/mL and 8 to 16 µg/mL"}, {"measurement": "MIC E. coli", "setting": "[11]", "value": "16 µg/mL and 16 to 32 µg/mL"}]}, {"compound": "NCCCOc1cc(-c2cc(-c3ccccc3)cc(-c3cc(OCCCN)c(OCCCN)c(OCCCN)c3)c2)cc(OCCCN)c1OCCCN", "note": "[Compound 115]", "values": [{"measurement": "MIC50", "setting": "[1]", "value": 6.25, "unit": "µg/mL"}, {"measurement": "MIC50", "setting": "[2]", "value": 12.5, "unit": "µg/mL"}, {"measurement": "MIC50", "setting": "[3]", "value": "> 50", "unit": "µg/mL"}, {"measurement": "MIC50", "setting": "[4]", "value": 12.5, "unit": "µg/mL"}, {"measurement": "MIC50", "setting": "[5]", "value": 25, "unit": "µg/mL"}, {"measurement": "MIC", "setting": "[6]", "value": 6.25, "unit": "µg/mL"}, {"measurement": "Selectivity (HC50/MIC) E. coli", "setting": "[6]", "value": ">160"}, {"measurement": "Selectivity (HC50/MIC) S. aureus", "setting": "[7]", "value": ">160"}, {"measurement": "MIC", "setting": "[7]", "value": 6.25, "unit": "µg/mL"}, {"measurement": "HC50", "setting": "[8]", "value": ">1000", "unit": "µg/mL"}, {"measurement": "EC50", "setting": "[12]", "value": 110, "unit": "µg/mL"}, {"measurement": "LPS-induced TNF production", "setting": "[9]", "value": "did not cause any additional increase in TNF production"}]}]}
